Measured values from patent publication US20070161648A1, “Substituted dihydro-isoindolones useful in treating kinase disorders” (priority 2005, published 2007).

Legend:
[1] = tested on: HeLa cervical adenocarcinoma; test: Cell proliferation inhibition assay (14C-thymidine incorporation), HeLa; format: cell-based; conditions: Homo sapiens
Description: (§1) The ability of a test compound to inhibit unregulated cell proliferation may be determined by measuring incorporation of ^14C-labelled thymidine into newly synthesized DNA within cell lines derived from carcinomas originating from several tissues. Accordingly, the effect of a test compound on proliferation of cells with a variety of phenotypes may be determined.
(§2) Carcinoma cell lines used include the HeLa cervical adenocarcinoma from the American Type Culture Collection (ATCC Cat. #CCL2), A375 malignant melanoma (ATCC Cat. #CRL-1619) and HCT-116 colon carcinoma (ATCC Cat. #CCL-247).
(§3) The carcinoma cells are trypsinized and counted. The cells (3000-8000 count) are added to each well of a 96-well CytoStar tissue culture treated scintillating microplate (Amersham #RPNQO160) in complete medium (100 μL) and the plate is then incubated in complete medium for 24 hrs at 37° C. in an inert atmosphere containing 5% CO2.
(§4) Test compound (1 μL) in 100% DMSO is added to the plate test-wells with DMSO only added to control-wells. The plate is incubated in complete medium for a second 24 hr period at 37° C. in an atmosphere containing 5% CO2.
(§5) An aliquot of a solution of Methyl ^14C-thymidine (56 mC/mmol) (NEN #NEC568 or Amersham #CFA532) and complete medium (20 uL to provide 0.2 μCi/well) is then added to each well and the plate is incubated for a third 24 hr period at 37° C. in an atmosphere containing 5% CO2.
(§6) The plate contents are then discarded, the plate is washed twice with PBS (200 μL) and then PBS (200 μL) is added to each well. The plate is sealed and the degree of methyl ^14C-thymidine incorporation is quantified on a Packard Top Count.
(§7) For a series of test concentrations, the IC50 was derived by graphing percent inhibition against the log of the concentrations tested for a given compound with results shown in Table 2.

A375 malignant melanoma = test: Cell proliferation inhibition assay (14C-thymidine incorporation), A375; format: cell-based; conditions: Homo sapiens, A-375
Description: as §1, §2, §3, §4, §5, §6, §7

VEGF-R2 kinase domain = target: T1, VEGF-R2 kinase domain (Rattus norvegicus, UniProt O08775); test: VEGF-R2 screening assay (33P-ATP FlashPlate kinase assay); format: biochemical; conditions: single test concentration 100 μM; read-out: VEGF-R2 percent inhibition
T1 construct: polyhistidine (N)
T1 sequence (O08775 786-1343): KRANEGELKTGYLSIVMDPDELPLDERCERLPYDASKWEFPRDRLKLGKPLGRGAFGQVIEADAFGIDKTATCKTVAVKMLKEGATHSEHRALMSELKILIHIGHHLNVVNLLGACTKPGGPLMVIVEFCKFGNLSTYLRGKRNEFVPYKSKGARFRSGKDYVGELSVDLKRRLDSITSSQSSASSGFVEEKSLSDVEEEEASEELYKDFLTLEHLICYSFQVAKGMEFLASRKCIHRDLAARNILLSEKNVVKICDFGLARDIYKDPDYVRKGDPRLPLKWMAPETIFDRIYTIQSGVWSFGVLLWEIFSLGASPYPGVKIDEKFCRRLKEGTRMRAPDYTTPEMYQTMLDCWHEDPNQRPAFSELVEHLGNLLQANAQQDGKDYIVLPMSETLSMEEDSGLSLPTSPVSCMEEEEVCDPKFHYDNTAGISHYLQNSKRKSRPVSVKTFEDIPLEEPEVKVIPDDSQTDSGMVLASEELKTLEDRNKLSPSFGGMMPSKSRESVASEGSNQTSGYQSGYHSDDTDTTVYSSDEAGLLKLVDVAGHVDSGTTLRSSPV
Procedure: (§8) 70 μL of the kinase reaction mixture was dispensed into the well of a streptavidin coated FlashPlate™ (Cat. # SMP103, NEN, Boston, Mass.).
(§9) Test compound stock in 100% DMSO (1 μL) was added to the wells resulting in a final concentration of 1% DMSO in the reaction with a 100 μL final reaction volume. Each enzyme was diluted in 50 mM Tris-HCl pH=8.0, 0.1% BSA and 30 μL was added to each well to initiate the reaction. The reaction was incubated for one hour at 30° C. At the end of the 1 hr incubation, the reaction was terminated by aspirating the mixture from the plate and washing the wells twice with PBS containing 100 mM EDTA. The biotinylated peptide substrate became immobilized on the Flashplate™ and the incorporation of ^33P-γ-ATP was measured by reading the plate on a scintillation counter. Inhibition of the enzymatic activity was measured by observing a reduced amount of ^33P-γ-ATP incorporated into the immobilized peptide.
The assay used 150 ng of the N-terminal biotinylated peptide biotin-[…]-amide (VEGF-R2) per well.
(§10) A maximum and minimum signal for the assay was determined on each plate. The percent inhibition of a test compound was calculated according to the formula: [formula]

Aurora-A = target: T2, Aurora-A (Mus musculus, UniProt P97477); test: Aurora-A screening assay (33P-ATP FlashPlate kinase assay); format: biochemical, murine; conditions: for inhibition at 100 µM: single test concentration 100 μM, read-out: Aurora-A percent inhibition
T2 construct: followed by the full length protein encoding the murine Aurora-A; polyhistidine (N); made in house; host or cells: Sf9 insect cells
T2 sequence (P97477 1-395): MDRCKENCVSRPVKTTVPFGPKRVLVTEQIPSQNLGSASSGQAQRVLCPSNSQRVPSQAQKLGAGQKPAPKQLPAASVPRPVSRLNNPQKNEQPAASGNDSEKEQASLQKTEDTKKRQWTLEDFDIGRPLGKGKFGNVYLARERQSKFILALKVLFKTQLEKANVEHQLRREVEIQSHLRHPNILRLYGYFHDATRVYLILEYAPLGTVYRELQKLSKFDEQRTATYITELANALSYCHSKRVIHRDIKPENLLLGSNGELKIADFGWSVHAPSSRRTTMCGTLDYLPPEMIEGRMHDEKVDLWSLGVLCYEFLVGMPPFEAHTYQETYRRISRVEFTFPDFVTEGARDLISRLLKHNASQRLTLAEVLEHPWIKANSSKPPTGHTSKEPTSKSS
Procedure: as §8, §9
Aurora-A is a fusion protein containing a polyhistidine tag at the N terminus followed by the full length protein encoding the murine Aurora-A (Accession number GB BC014711) expressed and purified from sf9 insect cells. The assay used 400 ng of the N-terminal biotinylated peptide biotin-[…]-amide (Aurora-A) per well.
as §10

HCT-116 colon carcinoma = test: Cell proliferation inhibition assay (14C-thymidine incorporation), HCT116; format: cell-based; conditions: Homo sapiens
Description: as §1, §2, §3, §4, §5, §6, §7

In the case of `CC(C)(C)OC(=O)n1c(-c2cccc3c2C(=O)NC3)cc2cc(O)ccc21` [Cpd 28, 5-hydroxy-2-(3-oxo-2,3-dihydro-1H-isoindol-4-yl)-indole-1-carboxylic acid tert-butyl ester], the IC50 [1] is reported as 34.8 µM, the IC50 (A375 malignant melanoma) is reported as 34.4 µM and the inhibition at 100 µM (VEGF-R2 kinase domain) is reported as 62%. It also gave an IC50 (Aurora-A; 10 μM ATP) of 9.35 µM and an IC50 (HCT-116 colon carcinoma) of over 10 µM.
For `CC(C)(C)OC(=O)n1c(-c2cccc3c2C(=O)NC3)cc2cc(OCCN3CCCCC3)ccc21` [Cpd 29, 2-(3-oxo-2,3-dihydro-1H-isoindol-4-yl)-5-(2-piperidin-1-yl-ethoxy)-indole-1-carboxylic acid tert-butyl ester], the IC50 [1] was 14.6 µM, the IC50 (A375 malignant melanoma) was 4.14 µM and the inhibition at 100 µM (VEGF-R2 kinase domain) was 63%. It also gave an inhibition at 100 µM (Aurora-A) of 58% and an IC50 (HCT-116 colon carcinoma) of over 1 µM.
Work on `CC(C)(C)OC(=O)n1c(-c2cccc3c2C(=O)NC3)cc2cc(OCCN3CCOCC3)ccc21` [Cpd 30, 5-(2-morpholin-4-yl-ethoxy)-2-(3-oxo-2,3-dihydro-1H-isoindol-4-yl)-indole-1-carboxylic acid tert-butyl ester] yielded an IC50 [1] of 20.3 µM, an IC50 (A375 malignant melanoma) of 5.31 µM and an inhibition at 100 µM (VEGF-R2 kinase domain) of 65%. For the same molecule, the inhibition at 100 µM (Aurora-A) was 57% and the IC50 (HCT-116 colon carcinoma) was 17 µM.
`COc1cc2c(c(-c3cc4cc(OC)ccc4n3C(=O)OC(C)(C)C)c1)C(=O)NC2` [Cpd 31, 5-Methoxy-2-(6-methoxy-3-oxo-2,3-dihydro-1H-isoindol-4-yl)-indole-1-carboxylic acid tert-butyl ester] was tested, and the IC50 [1] was 44.3 µM, the IC50 (A375 malignant melanoma) was 39.6 µM and the inhibition at 100 µM (VEGF-R2 kinase domain) was 17%. The inhibition at 100 µM (Aurora-A) was 40% and the IC50 (HCT-116 colon carcinoma) was 39.5 µM.
